The IC50 is the point on the concentration scale where inhibition reaches its midpoint.

In experiment [1] the target is T1, BACE1 (Homo sapiens (Human), UniProt P56817). As to the kind of experiment: In vitro enzymatic BACE1 FRET assay. Particulars: read-out: BACE1 Enzyme IC50. Format: biochemical.
Target sequence in this assay (P56817 46-501): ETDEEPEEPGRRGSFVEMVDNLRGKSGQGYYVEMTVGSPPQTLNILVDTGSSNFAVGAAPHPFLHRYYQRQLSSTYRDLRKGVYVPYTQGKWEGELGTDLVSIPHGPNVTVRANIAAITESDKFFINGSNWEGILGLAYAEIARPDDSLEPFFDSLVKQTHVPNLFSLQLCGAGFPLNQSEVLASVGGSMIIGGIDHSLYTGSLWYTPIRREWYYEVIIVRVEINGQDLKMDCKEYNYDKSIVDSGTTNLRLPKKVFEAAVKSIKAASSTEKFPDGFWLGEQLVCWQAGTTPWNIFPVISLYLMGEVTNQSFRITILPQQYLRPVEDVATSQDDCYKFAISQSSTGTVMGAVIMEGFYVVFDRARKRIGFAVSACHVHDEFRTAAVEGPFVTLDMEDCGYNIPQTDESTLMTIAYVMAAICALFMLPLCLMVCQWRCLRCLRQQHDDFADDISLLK
Experiment [2] has as its target T1, BACE1. As to the kind of experiment: In vitro BACE1 cell-based assay (Aβ40 in conditioned medium of cells stably expressing APP, HTRF).
Target sequence in this assay (P56817 46-501, species assumed): as the sequence (P56817 46-501) above
Experiment [3] addresses human recombinant BACE2 (Homo sapiens (Human), UniProt Q9Y5Z0). As to the kind of experiment: In vitro enzymatic BACE2 FRET assay. Format: biochemical. To be noted: read-out: BACE2 Enzyme IC50.
For experiment [4], the target named is Cathepsin D (CatD) (Homo sapiens (Human), UniProt P07339). Description: In vitro enzymatic Cathepsin D (CatD) FRET assay. Format: biochemical. Particulars: read-out: Cat D Enzyme IC50.
Where [5] appears, read: Aβ40 in conditioned media after 24 h incubation.

SMILES strings stand for the structures.

Cathepsin D (CatD), sequence (P07339 65-412, species assumed): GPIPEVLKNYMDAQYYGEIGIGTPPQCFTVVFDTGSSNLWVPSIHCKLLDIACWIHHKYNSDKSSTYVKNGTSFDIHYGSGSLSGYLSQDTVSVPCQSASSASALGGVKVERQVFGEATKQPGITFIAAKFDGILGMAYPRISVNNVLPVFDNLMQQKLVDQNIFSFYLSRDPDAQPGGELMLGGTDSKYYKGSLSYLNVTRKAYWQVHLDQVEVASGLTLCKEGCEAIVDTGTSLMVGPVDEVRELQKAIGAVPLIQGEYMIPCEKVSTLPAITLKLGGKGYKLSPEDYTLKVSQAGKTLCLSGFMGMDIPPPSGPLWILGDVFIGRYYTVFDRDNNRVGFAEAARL
human recombinant BACE2, sequence (Q9Y5Z0 63-518): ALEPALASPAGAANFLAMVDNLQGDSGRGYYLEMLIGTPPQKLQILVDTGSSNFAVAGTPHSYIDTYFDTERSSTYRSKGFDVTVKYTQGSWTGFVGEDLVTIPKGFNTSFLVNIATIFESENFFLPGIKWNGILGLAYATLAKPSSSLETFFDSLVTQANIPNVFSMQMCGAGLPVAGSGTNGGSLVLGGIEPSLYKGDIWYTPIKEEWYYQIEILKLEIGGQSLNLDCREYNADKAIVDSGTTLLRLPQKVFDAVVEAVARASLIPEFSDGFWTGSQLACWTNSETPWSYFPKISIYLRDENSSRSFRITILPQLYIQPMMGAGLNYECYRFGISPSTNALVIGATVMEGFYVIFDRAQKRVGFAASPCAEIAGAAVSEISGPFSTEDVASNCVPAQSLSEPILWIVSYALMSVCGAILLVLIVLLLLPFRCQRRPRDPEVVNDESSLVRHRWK

`CC1(C)C(N)=N[C@](C)(c2cc(/C=C(\F)c3ccc(Cl)cn3)ccc2F)CS1(=O)=O` [Example 114, (R,Z)-5-amino-3-(5-(2-(5-chloropyridin-2-yl)-2-fluorovinyl)-2-fluorophenyl)-3,6,6-trimethyl-3,6-dihydro-2H-1,4-thiazine 1,1-dioxide]: the IC50 in experiment [1] was 0.009 µM; in experiment [2] (setting [5]), 0.08 µM; in experiment [3], 0.003 µM; in experiment [4], 115 µM.

As to `CCC#C[C@H](C)Oc1cnc(/C(F)=C/c2ccc(F)c([C@]3(C)CS(=O)(=O)C(C)(C)C(N)=N3)c2)cn1` (single isomer, unassigned) [Example 217], the 50% inhibitory concentration (IC50) is 0.009 µM in experiment [1], 0.288 µM in experiment [2] (setting [5]), 0.233 µM in experiment [3] and 26.8 µM in experiment [4].

Regarding `CN1C(N)=N[C@](C)(c2cc(/C=C(\F)c3ncc(C#N)cc3Cl)ccc2F)CS1(=O)=O` [Example 269, (R,Z)-6-(2-(3-(3-amino-2,5-dimethyl-1,1-dioxido-5,6-dihydro-2H-1,2,4-thiadiazin-5-yl)-4-fluorophenyl)-1-fluorovinyl)-5-chloronicotinonitrile], the IC50 in experiment [1] came out at 0.002 µM; in experiment [2] (setting [5]), 0.004 µM; in experiment [3], 0.003 µM; in experiment [4], 119 µM.

Consider `CC1(C)C(N)=N[C@](C)(c2cc(/C=C(\F)c3ncc(C#N)cc3Cl)ccc2F)CS1(=O)=O` [Example 268, (R,Z)-6-(2-(3-(5-amino-3,6,6-trimethyl-1,1-dioxido-3,6-dihydro-2H-1,4-thiazin-3-yl)-4-fluorophenyl)-1-fluorovinyl)-5-chloronicotinonitrile], for which the IC50 amounted to 0.007 µM in experiment [1], 0.035 µM in experiment [2] (setting [5]), 0.012 µM in experiment [3] and 136 µM in experiment [4].

For the compound `CN1C(N)=N[C@](C)(c2cc(/C=C(\F)c3cnc(OCC#CCF)cn3)ccc2F)CS1(=O)=O` [Example 254, (R,Z)-3-amino-5-(2-fluoro-5-(2-fluoro-2-(5-((4-fluorobut-2-yn-1-yl)oxy)pyrazin-2-yl)vinyl)phenyl)-2,5-dimethyl-5,6-dihydro-2H-1,2,4-thiadiazine 1,1-dioxide], the IC50 in experiment [1] came out at 0.007 µM; in experiment [2] (setting [5]), 0.021 µM; in experiment [3], 0.052 µM; in experiment [4], 28.3 µM.

Consider `CN1C(N)=N[C@](C)(c2cc(/C=C(\F)C3CCOCC3)cc(F)c2F)CS1(=O)=O` [Example 110, (R,Z)-3-amino-5-(2,3-difluoro-5-(2-fluoro-2-(tetrahydro-2H-pyran-4-yl)vinyl)phenyl)-2,5-dimethyl-5,6-dihydro-2H-1,2,4-thiadiazine 1,1-dioxide], for which the IC50 amounted to 0.709 µM in experiment [1], 0.631 µM in experiment [2] (setting [5]), 0.963 µM in experiment [3] and 194 µM in experiment [4].

With `CC1(C)C(N)=N[C@](CF)(c2cc(/C=C(\F)c3ccc(C#N)cn3)ccc2F)CS1(=O)=O` [Example 188, (S,Z)-6-(2-(3-(5-amino-3-(fluoromethyl)-6,6-dimethyl-1,1-dioxido-3,6-dihydro-2H-1,4-thiazin-3-yl)-4-fluorophenyl)-1-fluorovinyl)nicotinonitrile], the IC50 in experiment [1] amounted to 0.013 µM; in experiment [2] (setting [5]), 0.222 µM; in experiment [3], 0.057 µM; in experiment [4], 155 µM.

Take `CN1C(N)=N[C@](C)(c2cc(/C=C(\F)c3cnc(Cl)cn3)ccc2F)C2(CC2)S1(=O)=O` [Example 139, (8R)-8-(5-((Z)-2-(5-chloro-2-pyrazinyl)-2-fluoroethenyl)-2-fluorophenyl)-5,8-dimethyl-4-thia-5,7-diazaspiro[2.5]oct-6-en-6-amine 4,4-dioxide]: the IC50 in experiment [1] worked out at 0.049 µM; in experiment [2] (setting [5]), 0.198 µM; in experiment [3], 0.07 µM; in experiment [4] it was 428 µM.

With `CN1C(N)=N[C@](C)(c2cc(/C=C(\F)c3cc4c(cn3)OCCC4)ccc2F)CS1(=O)=O` [Example 239, (5R)-5-(5-((Z)-2-(3,4-dihydro-2H-pyrano[2,3-c]pyridin-6-yl)-2-fluoroethenyl)-2-fluorophenyl)-2,5-dimethyl-5,6-dihydro-2H-1,2,4-thiadiazin-3-amine 1,1-dioxide], the IC50 in experiment [1] came to 0.53 µM; in experiment [2] (setting [5]) it was 1.02 µM; in experiment [3] it was 0.143 µM; in experiment [4], 329 µM.

As for `COC(C)COc1cnc(/C(F)=C/c2ccc(F)c([C@]3(C)CS(=O)(=O)N(C)C(N)=N3)c2)cn1` (stereo partly drawn) [Example 172, (R)-3-amino-5-(2-fluoro-5-((Z)-2-fluoro-2-(5-(2-methoxypropoxy)pyrazin-2-yl)vinyl)phenyl)-2,5-dimethyl-5,6-dihydro-2H-1,2,4-thiadiazine 1,1-dioxide], the IC50 in experiment [1] came to 0.025 µM; in experiment [2] (setting [5]), 0.023 µM; in experiment [3] it was 0.084 µM; in experiment [4], 67.6 µM.

In the case of `CN1C(N)=N[C@](C)(c2cc(/C=C(\F)c3cnc(OCC#CCO)cn3)ccc2F)CS1(=O)=O` [Example 252, (R,Z)-3-amino-5-(2-fluoro-5-(2-fluoro-2-(5-((4-hydroxybut-2-yn-1-yl)oxy)pyrazin-2-yl)vinyl)phenyl)-2,5-dimethyl-5,6-dihydro-2H-1,2,4-thiadiazine 1,1-dioxide], the IC50 in experiment [1] amounted to 0.01 µM; in experiment [2] (setting [5]), 0.007 µM; in experiment [3], 0.056 µM.

Regarding `C#CCOc1cnc(/C(F)=C/c2ccc(F)c([C@@]3(C)N=C(N)C(C)(C)S(=O)(=O)C3(F)F)c2)cn1` [Example 202, (R,Z)-5-amino-2,2-difluoro-3-(2-fluoro-5-(2-fluoro-2-(5-(prop-2-yn-1-yloxy)pyrazin-2-yl)vinyl)phenyl)-3,6,6-trimethyl-3,6-dihydro-2H-1,4-thiazine 1,1-dioxide], the IC50 in experiment [1] was found to be 0.166 µM; in experiment [2], 9.57 µM; in experiment [3], 0.87 µM.

Turning to `C#CCOc1cnc(/C(F)=C/c2ccc(F)c([C@@]3(C)N=C(N)C(C)(C)S(=O)(=O)[C@H]3F)c2)cn1` (single isomer, unassigned) [Example 200], the IC50 was 0.018 µM in experiment [1], 0.206 µM in experiment [2] and 0.086 µM in experiment [3].

In the case of `CN1C(N)=N[C@](C)(c2cc(/C=C(\F)c3cnc(OCc4ncco4)cn3)ccc2F)CS1(=O)=O` [Example 116, (R,Z)-3-amino-5-(2-fluoro-5-(2-fluoro-2-(5-(oxazol-2-ylmethoxy)pyrazin-2-yl)vinyl)phenyl)-2,5-dimethyl-5,6-dihydro-2H-1,2,4-thiadiazine 1,1-dioxide], the IC50 in experiment [1] is 0.003 µM; in experiment [2] (setting [5]), 0.001 µM; in experiment [3], 0.045 µM.

On to `C[C@]1(c2cc(/C=C(\F)c3ccc(Br)cn3)ccc2F)N=C(N)C2(CF)CC[C@@H]1S2(=O)=O` (stereo in doubt) [Example 101, (1R,4R,5S)-2-amino-4-(5-((Z)-2-(5-bromopyridin-2-yl)-2-fluorovinyl)-2-fluorophenyl)-1-(fluoromethyl)-4-methyl-8-thia-3-azabicyclo[3.2.1]oct-2-ene 8,8-dioxide], for which the results for the IC50 in experiment [1], in experiment [2] (setting [5]) and in experiment [3] were 0.005 µM, 0.079 µM and 0.013 µM, respectively.

For `C#CCOc1cnc(/C(F)=C/c2ccc(F)c([C@@]3(C)N=C(N)N(C)S(=O)(=O)C3(C)C)c2)cn1` [Example 183, (R,Z)-3-amino-5-(2-fluoro-5-(2-fluoro-2-(5-(prop-2-yn-1-yloxy)pyrazin-2-yl)vinyl)phenyl)-2,5,6,6-tetramethyl-5,6-dihydro-2H-1,2,4-thiadiazine 1,1-dioxide], the values for the IC50 in experiment [1] and in experiment [2] (setting [5]) were 0.013 µM and 0.075 µM, respectively.

Turning to `C#CCOc1cnc(/C(F)=C/c2ccc(F)c([C@]3(C)CS(=O)(=O)N(C)C(N)=N3)c2)cn1` [Example 112, (R,Z)-3-amino-5-(2-fluoro-5-(2-fluoro-2-(5-(prop-2-yn-1-yloxy)pyrazin-2-yl)vinyl)phenyl)-2,5-dimethyl-5,6-dihydro-2H-1,2,4-thiadiazine 1,1-dioxide], the values for the IC50 in experiment [1], in experiment [2] and in experiment [4] were 0.003 µM, 0.008 µM and 35.8 µM, respectively.

Regarding `C#CCOc1cnc(/C(F)=C/c2ccc(F)c([C@@]3(C)N=C(N)C(C)(C)S(=O)(=O)[C@@H]3F)c2)cn1` (single isomer, unassigned) [Example 201], the IC50 came out at 0.006 µM in experiment [1], 0.214 µM in experiment [2] and 0.082 µM in experiment [3].

Take `CC1(C)C(N)=N[C@](C)(c2cc(/C=C(\F)c3cnc(Cl)cn3)cc(F)c2F)CS1(=O)=O` [Example 193, (R,Z)-5-amino-3-(5-(2-(5-chloropyrazin-2-yl)-2-fluorovinyl)-2,3-difluorophenyl)-3,6,6-trimethyl-3,6-dihydro-2H-1,4-thiazine 1,1-dioxide]: the IC50 in experiment [1] is 0.121 µM; in experiment [2] (setting [5]) it was 0.833 µM; in experiment [4] it was 82.3 µM.

Turning to `C[C@]1(c2cc(/C=C(/F)C3CCCO3)ccc2F)N=C(N)[C@@]2(CF)CC[C@@H]1S2(=O)=O` (stereo partly drawn) [Example 278, (1R,4R,5S)-2-amino-4-(2-fluoro-5-((E)-2-fluoro-2-(tetrahydrofuran-2-yl)vinyl)phenyl)-1-(fluoromethyl)-4-methyl-8-thia-3-azabicyclo[3.2.1]oct-2-ene 8,8-dioxide], the IC50 in experiment [1] is 1.11 µM; in experiment [2] (setting [5]), 1.98 µM.

As to `C=CCOc1cnc(/C(F)=C/c2cc(F)c(F)c([C@]3(C)CS(=O)(=O)N(C)C(N)=N3)c2)cn1` [Example 227, (R,Z)-5-(5-(2-(5-(allyloxy)pyrazin-2-yl)-2-fluorovinyl)-2,3-difluorophenyl)-3-amino-2,5-dimethyl-5,6-dihydro-2H-1,2,4-thiadiazine 1,1-dioxide], the concentration for half-maximal inhibition (IC50) was determined as 0.046 µM in experiment [1] and 0.427 µM in experiment [2].

As to `Cc1cc(COc2cnc(/C(F)=C/c3cc(F)c(F)c([C@]4(C)CS(=O)(=O)N(C)C(N)=N4)c3)cn2)on1` [Example 221, (R,Z)-3-amino-5-(2,3-difluoro-5-(2-fluoro-2-(5-((3-methylisoxazol-5-yl)methoxy)pyrazin-2-yl)vinyl)phenyl)-2,5-dimethyl-5,6-dihydro-2H-1,2,4-thiadiazine 1,1-dioxide], the IC50 is 0.038 µM in experiment [1], 0.215 µM in experiment [2] and 0.197 µM in experiment [3].

The record behind these values is patent publication US11021493B2, “1,4-thiazine dioxide and 1,2,4-thiadiazine dioxide derivatives as beta-secretase inhibitors and methods of use” (AMGEN INC., priority 2016, dated 2021).
